pIC50: −log10 of the molar value. Structures can show the parent of a compound that is named as a salt.
Legend:
human NHE3 = molecular target: T1, human NHE3 (Homo sapiens, UniProt P48764); assay: NHE3 inhibition test (recovery of intracellular pH in cell line stably expressing human NHE3); assay type: cell-based; conditions: OK cells deficient in endogenous NHE stably expressing human NHE3; BCECF fluorescence, initial rate of pH recovery; read-out: human NHE3 inhibitory activity IC50
T1 sequence (P48764 26-834): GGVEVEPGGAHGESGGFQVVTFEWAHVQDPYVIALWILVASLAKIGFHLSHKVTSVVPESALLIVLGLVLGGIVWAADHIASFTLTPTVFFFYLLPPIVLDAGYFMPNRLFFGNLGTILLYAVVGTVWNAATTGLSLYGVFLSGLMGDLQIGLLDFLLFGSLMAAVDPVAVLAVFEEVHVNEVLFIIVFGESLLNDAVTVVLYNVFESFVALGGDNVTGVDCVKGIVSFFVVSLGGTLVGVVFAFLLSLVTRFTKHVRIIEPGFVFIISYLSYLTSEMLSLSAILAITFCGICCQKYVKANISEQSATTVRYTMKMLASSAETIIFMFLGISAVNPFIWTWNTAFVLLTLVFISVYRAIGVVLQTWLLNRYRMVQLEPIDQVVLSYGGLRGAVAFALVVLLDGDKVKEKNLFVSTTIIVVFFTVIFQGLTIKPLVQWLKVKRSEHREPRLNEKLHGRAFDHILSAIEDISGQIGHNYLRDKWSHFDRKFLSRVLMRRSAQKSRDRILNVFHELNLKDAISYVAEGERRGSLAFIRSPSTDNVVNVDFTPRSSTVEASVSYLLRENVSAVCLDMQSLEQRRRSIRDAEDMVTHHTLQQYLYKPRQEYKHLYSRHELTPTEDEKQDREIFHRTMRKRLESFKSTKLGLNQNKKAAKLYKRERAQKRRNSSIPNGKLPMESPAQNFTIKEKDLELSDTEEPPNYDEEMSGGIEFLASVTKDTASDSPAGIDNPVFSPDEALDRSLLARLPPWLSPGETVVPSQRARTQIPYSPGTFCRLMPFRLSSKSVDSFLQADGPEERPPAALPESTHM
Method in brief: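 Opossum kidney cells lacking endogenous NHE, stably expressing human NHE3, loaded with BCECF-AM and acid-loaded by NH4Cl washout. Compound in Na-free buffer, then Na-containing buffer (pH 7.4) added; initial pH-recovery rate by BCECF fluorescence, IC50 versus no-compound recovery.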

SD rat = assay: 32P-phosphate oral loading test using SD rat (phosphorus absorption inhibitory effect); assay type: in vivo; conditions: Rattus norvegicus, 0.5 h; SD male rats, oral dose 3 mg/kg; plasma radioactivity 30 minutes after 32P-phosphate solution, vs control group; read-out: Rate of inhibition of phosphate absorption
Experimental: Phosphorus Absorption Inhibitory Effect of the Compound of the Present Invention in ^32P-Phosphate Oral Loading Test Using SD Rat
8-week-old SD male rats (Japan SLC, Inc.) were used as laboratory animals. Each test compound was suspended or dissolved at a concentration of 0.2 mg/mL or 0.6 mg/mL in Japanese Pharmacopoeia water for injection (manufactured by Hikari Pharmaceutical Co., Ltd.) and orally administered to each rat at a dose of 5 ml/kg body weight. Japanese Pharmacopoeia water for injection was administered at the same dose as above to a control group. 5 minutes after the administration of the test compound or water for injection, a phosphate solution (1.3 mM NaH2PO4) containing 32P-phosphate (PerkinElmer Inc.) was administered thereto at a dose of 5 ml/kg. 30 minutes after the administration of the phosphate solution, blood was collected from the tail vein, and the blood sample was immediately mixed with EDTA-2K (manufactured by Dojindo Laboratories). Then, the mixture was centrifuged at 3000 rpm at 4° C. for 10 minutes to recover plasma.
The radioactivity in 100 μL of the plasma was measured using a liquid scintillation counter and used as a phosphate absorption count. The radioactivity in the plasma of the control group was used as a control, and the rate of inhibition of phosphate absorption was determined according to the following expression: Rate of inhibition of phosphate absorption (%)=(1−Phosphate absorption count of the test compound administration group/Phosphate absorption count of the control group)×100 (2) Results

Row | Compound | pIC50 (human NHE3) | inhibition in vivo at 3 mg/kg (SD rat)
1 | CN1Cc2c(Cl)cc(Cl)cc2[C@H](c2cccc(-c3ccnc(NCCOCCOCCNC(=O)NCCCCNC(=O)NCCOCCOCCNc4cc(-c5cccc([C@@H]6CN(C)Cc7c(Cl)cc(Cl)cc76)c5)ccn4)c3)c2)C1 [Example 7-4, 1,1′-Butane-1,4-diylbis {3-[2-(2-{2-[(4-{3-[(4S)-6,8-dichloro-2-methyl-1,2,3,4-tetrahydroisoquinolin-4-yl]phenyl}pyridin-2-yl)amino]ethoxy}ethoxy)ethyl]urea}pentahydrochloride] | 8.08 | 27%
2 | CN1Cc2c(Cl)cc(Cl)cc2[C@H](c2cccc(-c3cnn(CCOCCOCCNC(=O)NCCCCNC(=O)NCCOCCOCCn4cc(-c5cccc([C@@H]6CN(C)Cc7c(Cl)cc(Cl)cc76)c5)cn4)c3)c2)C1 [Example 7-5, 1,1′-Butane-1,4-diylbis[3-(2-{2-[2-(4-{3-[(4S)-6,8-dichloro-2-methyl-1,2,3,4-tetrahydroisoquinolin-4-yl]phenyl}-1H-pyrazol-1-yl)ethoxy]ethoxy}ethyl)urea]diformate] | 8.35 | 23%
3 | CN1Cc2c(Cl)cc(Cl)cc2[C@H](c2cccc(-c3cn(CCOCCOCCNC(=O)NCCCCNC(=O)NCCOCCOCCn4cnc(-c5cccc([C@@H]6CN(C)Cc7c(Cl)cc(Cl)cc76)c5)c4)cn3)c2)C1 [Example 7-15, 1,1′-Butane-1,4-diylbis[3-(2-{2-[2-(4-{3-[(4S)-6,8-dichloro-2-methyl-1,2,3,4-tetrahydroisoquinolin-4-yl]phenyl}-1H-imidazol-1-yl)ethoxy]ethoxy}ethyl)urea]hydrochloride] | 8.09 | 36%
4 | CN1Cc2c(Cl)cc(Cl)cc2[C@H](c2cccc(-c3cc(NCCOCCOCCOCCNC(=O)Nc4ccc(NC(=O)NCCOCCOCCOCCNc5cc(-c6cccc([C@@H]7CN(C)Cc8c(Cl)cc(Cl)cc87)c6)ncn5)cc4)ncn3)c2)C1 [Example 7-16, 1,1′-Benzene-1,4-diylbis(3-{2-[2-(2-{2-[(6-{3-[(4S)-6,8-dichloro-2-methyl-1,2,3,4-tetrahydroisoquinolin-4-yl]phenyl}pyrimidin-4-yl)amino]ethoxy}ethoxy)ethoxy]ethyl}urea) hydrochloride] | 7.78 | 34%
5 | CN1Cc2c(Cl)cc(Cl)cc2[C@H](c2cccc(-c3ccc(C(=O)NCCOCCOCCNC(=O)NCCCCNC(=O)NCCOCCOCCNC(=O)c4ccc(-c5cccc([C@@H]6CN(C)Cc7c(Cl)cc(Cl)cc76)c5)cn4)nc3)c2)C1 [Example 7-18, N,N′-(10,17-Dioxo-3,6,21,24-tetraoxa-9,11,16,18-tetraazahexacosane-1,26-diyl)bis(5-{3-[(4S)-6,8-dichloro-2-methyl-1,2,3,4-tetrahydroisoquinolin-4-yl]phenyl}pyridine-2-carboxamide) hydrochloride] | 8.25 | 49%
6 | CN1Cc2c(Cl)cc(Cl)cc2[C@H](c2cccc(-c3cc(NCCOCCOCCOCCNC(=O)NCCCCNC(=O)NCCOCCOCCOCCNc4cnnc(-c5cccc([C@@H]6CN(C)Cc7c(Cl)cc(Cl)cc76)c5)c4)cnn3)c2)C1 [Example 7-19, 1,1′-Butane-1,4-diylbis(3-{2-[2-(2-{2-[(6-{3-[(4S)-6,8-dichloro-2-methyl-1,2,3,4-tetrahydroisoquinolin-4-yl]phenyl}pyridazin-4-yl)amino]ethoxy}ethoxy)ethoxy]ethyl}urea) hexahydrochloride] | 7.75 | 19%
7 | CN1Cc2c(Cl)cc(Cl)cc2[C@H](c2cccc(-c3nnn(CCOCCOCCOCCOCCNC(=O)NCCCCNC(=O)NCCOCCOCCOCCOCCn4nnc(-c5cccc([C@@H]6CN(C)Cc7c(Cl)cc(Cl)cc76)c5)n4)n3)c2)C1 [Example 7-29, 1,1′-Butane-1,4-diylbis {3-[14-(5-{3-[(4S)-6,8-dichloro-2-methyl-1,2,3,4-tetrahydroisoquinolin-4-yl]phenyl}-2H-tetrazol-2-yl)-3,6,9,12-tetraoxatetradec-1-yl]urea}hydrochloride] | 8.16 | 10%
8 | CN1Cc2c(Cl)cc(Cl)cc2[C@H](c2cccc(-c3nnn(CCOCCOCCOCCNC(=O)NCCCCNC(=O)NCCOCCOCCOCCn4nnc(-c5cccc([C@@H]6CN(C)Cc7c(Cl)cc(Cl)cc76)c5)n4)n3)c2)C1 [Example 7-30, 1,1′-Butane-1,4-diylbis {3-[2-(2-{2-[2-(5-{3-[(4S)-6,8-dichloro-2-methyl-1,2,3,4-tetrahydroisoquinolin-4-yl]phenyl}-2H-tetrazol-2-yl)ethoxy]ethoxy}ethoxy)ethyl]urea}hydrochloride] | 8.55 | 28%
9 | CN1Cc2c(Cl)cc(Cl)cc2[C@H](c2cccc(-c3cncc(NCCOCCOCCOCCNC(=O)NCCCCNC(=O)NCCOCCOCCOCCNc4cncc(-c5cccc([C@@H]6CN(C)Cc7c(Cl)cc(Cl)cc76)c5)n4)n3)c2)C1 [Example 7-33, 1,1′-Butane-1,4-diylbis(3-{2-[2-(2-{2-[(6-{3-[(4S)-6,8-dichloro-2-methyl-1,2,3,4-tetrahydroisoquinolin-4-yl]phenyl}pyrazin-2-yl)amino]ethoxy}ethoxy)ethoxy]ethyl}urea) hexahydrochloride] | 8.07 | -1%

Continued by rising pIC50 (human NHE3), values first:

Row | pIC50 (human NHE3) | Compound | inhibition in vivo at 3 mg/kg (SD rat)
10 | 7.86 | CN1Cc2c(Cl)cc(Cl)cc2[C@H](c2cccc(-c3nnn(CCOCCOCCNC(=O)Nc4ccc(NC(=O)NCCOCCOCCn5nnc(-c6cccc([C@@H]7CN(C)Cc8c(Cl)cc(Cl)cc87)c6)n5)cc4)n3)c2)C1 [Example 7-10, 1,1′-Benzene-1,4-diylbis[3-(2-{2-[2-(5-{3-[(4S)-6,8-dichloro-2-methyl-1,2,3,4-tetrahydroisoquinolin-4-yl]phenyl}-2H-tetrazol-2-yl)ethoxy]ethoxy}ethyl)urea]hydrochloride] | 35%
11 | 8.00 | CN1Cc2c(Cl)cc(Cl)cc2[C@H](c2cccc(-c3cc(NCCOCCOCCNC(=O)NCCCCNC(=O)NCCOCCOCCNc4cnnc(-c5cccc([C@@H]6CN(C)Cc7c(Cl)cc(Cl)cc76)c5)c4)cnn3)c2)C1 [Example 7-6, 1,1′-Butane-1,4-diylbis {3-[2-(2-{2-[(6-{3-[(4S)-6,8-dichloro-2-methyl-1,2,3,4-tetrahydroisoquinolin-4-yl]phenyl}pyridazin-4-yl)amino]ethoxy}ethoxy)ethyl]urea}pentahydrochloride] | 24%
12 | 8.14 | CN1Cc2c(Cl)cc(Cl)cc2[C@H](c2cccc(-c3nnn(CCOCCOCCNC(=O)NCCCCNC(=O)NCCOCCOCCn4nnc(-c5cccc([C@@H]6CN(C)Cc7c(Cl)cc(Cl)cc76)c5)n4)n3)c2)C1 [Example 7-9, 1,1′-Butane-1,4-diylbis[3-(2-{2-[2-(5-{3-[(4S)-6,8-dichloro-2-methyl-1,2,3,4-tetrahydroisoquinolin-4-yl]phenyl}-2H-tetrazol-2-yl)ethoxy]ethoxy}ethyl)urea]hydrochloride] | 22%
13 | 8.25 | CN1Cc2c(Cl)cc(Cl)cc2[C@H](c2cccc(-c3cn(CCOCCOCCOCCNC(=O)Nc4ccc(NC(=O)NCCOCCOCCOCCn5cc(-c6cccc([C@@H]7CN(C)Cc8c(Cl)cc(Cl)cc87)c6)nn5)cc4)nn3)c2)C1 [Example 7-24, 1,1′-Benzene-1,4-diylbis{3-[2-(2-{2-[2-(4-{3-[(4S)-6,8-dichloro-2-methyl-1,2,3,4-tetrahydroisoquinolin-4-yl]phenyl}-1H-1,2,3-triazol-1-yl)ethoxy]ethoxy}ethoxy)ethyl]urea}hydrochloride] | 31%

From patent US9932331B2, “Phenyl tetrahydroisoquinoline compound substituted with heteroaryl” (TAISHO PHARMACEUTICAL CO., LTD, priority 2014, dated 2018)
